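Grown in 96-well plates, cells were treated for 48 hours with each compound at five concentrations. Insufficient inhibition: endpoint recorded as highest concentration tested. GI50 = concentration required for 50% inhibition of growth.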 Activity calls are given as the source filed them. Rule as the data show it: active = GI50 up to about 1.1 µM and inactive = higher.
How the values were obtained:
Assay in all cases: growth of human tumour cells (NCI), 48 h
[1] = tested on: 786-0
[2] = tested on: A498
[3] = tested on: A549
[4] = tested on: ACHN
[5] = tested on: BT-549
[6] = tested on: CAKI-1
[7] = tested on: CCRF-CEM
[8] = tested on: COLO 205
[9] = tested on: DU-145
[10] = tested on: EKVX
[11] = tested on: HCC 2998
[12] = tested on: HCT-116
[13] = tested on: HCT-15
[14] = tested on: HL-60
[15] = tested on: HOP-62
[16] = tested on: HOP-92
[17] = tested on: HT-29
[18] = tested on: Hs-578T
[19] = tested on: IGROV-1
[20] = tested on: K562
[21] = tested on: KM12
[22] = tested on: LOX IMVI
[23] = tested on: M14
[24] = tested on: MCF7
[25] = tested on: MDA-MB-231
[26] = tested on: MDA-MB-435
[27] = tested on: MDA-N
[28] = tested on: MOLT-4
[29] = tested on: Malme-3M
[30] = tested on: NCI-H23
[31] = tested on: NCI-H460
[32] = tested on: NCI-H522
[33] = tested on: NCI/ADR-RES
[34] = tested on: OVCAR-3
[35] = tested on: OVCAR-4
[36] = tested on: OVCAR-5
[37] = tested on: OVCAR-8
[38] = tested on: PC-3
[39] = tested on: RPMI-8226
[40] = tested on: RXF 393
[41] = tested on: SF-268
[42] = tested on: SF-295
[43] = tested on: SF-539
[44] = tested on: SK-MEL-28
[45] = tested on: SK-MEL-2
[46] = tested on: SK-MEL-5
[47] = tested on: SK-OV-3
[48] = tested on: SN12C
[49] = tested on: SNB-19
[50] = tested on: SNB-75
[51] = tested on: SR
[52] = tested on: SW-620
[53] = tested on: T47D
[54] = tested on: TK-10
[55] = tested on: U-251
[56] = tested on: UACC-257
[57] = tested on: UACC-62
[58] = tested on: UO-31
[59] = tested on: NCI-H226

## C/C(=N\[N+](C)(C)C)c1ccc(C)c(C)c1
[1]
  GI50: > 10 µM (inactive)
[2]
  GI50: 22.3 µM (inactive)
[3]
  GI50: 7.62 µM (inactive)
[4]
  GI50: > 10 µM (inactive)
[5]
  GI50: 58.3 µM (inactive)
[6]
  GI50: > 10 µM (inactive)
[7]
  GI50: 35.4 µM (inactive)
[8]
  GI50: 14.6 µM (inactive)
[9]
  GI50: 64.3 µM (inactive)
[10]
  GI50: 7.5 µM (inactive)
[11]
  GI50: > 10 µM (inactive)
[12]
  GI50: 76.9 µM (inactive)
[13]
  GI50: > 10 µM
[14]
  GI50: 82.2 µM (inactive)
[15]
  GI50: > 10 µM (inactive)
[16]
  GI50: > 10 µM (inactive)
[17]
  GI50: 21.1 µM (inactive)
[18]
  GI50: > 10 µM (inactive)
[19]
  GI50: > 100 µM (inactive)
[20]
  GI50: 46.1 µM (inactive)
[21]
  GI50: 24.9 µM (inactive)
[22]
  GI50: > 10 µM (inactive)
[23]
  GI50: > 10 µM (inactive)
[24]
  GI50: > 10 µM (inactive)
[25]
  GI50: > 10 µM (inactive)
[26]
  GI50: 96.4 µM (inactive)
[27]
  GI50: 45.8 µM (inactive)
[28]
  GI50: > 10 µM (inactive)
[29]
  GI50: > 10 µM (inactive)
[30]
  GI50: 62.5 µM (inactive)
[31]
  GI50: 29.4 µM (inactive)
[32]
  GI50: 49.1 µM (inactive)
[33]
  GI50: > 10 µM (inactive)
[34]
  GI50: 78.2 µM (inactive)
[35]
  GI50: 88.1 µM (inactive)
[36]
  GI50: 42.4 µM (inactive)
[37]
  GI50: 55.1 µM (inactive)
[38]
  GI50: 36.9 µM (inactive)
[39]
  GI50: 54 µM (inactive)
[40]
  GI50: 62.8 µM (inactive)
[41]
  GI50: > 10 µM (inactive)
[42]
  GI50: 83.6 µM (inactive)
[43]
  GI50: > 10 µM (inactive)
[44]
  GI50: > 10 µM (inactive)
[45]
  GI50: > 100 µM (inactive)
[46]
  GI50: 35.7 µM (inactive)
[47]
  GI50: 77.6 µM (inactive)
[48]
  GI50: 20.4 µM (inactive)
[49]
  GI50: 42.9 µM (inactive)
[50]
  GI50: 53.5 µM (inactive)
[51]
  GI50: 82.6 µM (inactive)
[52]
  GI50: 51.3 µM (inactive)
[53]
  GI50: > 100 µM (inactive)
[54]
  GI50: 45.9 µM (inactive)
[55]
  GI50: 39.4 µM (inactive)
[56]
  GI50: 0.752 µM (active)
[57]
  GI50: > 100 µM (inactive)
[58]
  GI50: 77.4 µM (inactive)

## Cc1cc(C)c(O)c(CN2CCN(C(C)C)CCN(C(C)C)CC2)c1
[1]
  GI50: 42.9 µM (inactive)
[2]
  GI50: > 100 µM (inactive)
[3]
  GI50: 32.3 µM (inactive)
[4]
  GI50: 32.1 µM (inactive)
[5]
  GI50: 22 µM (inactive)
[6]
  GI50: 75.2 µM (inactive)
[7]
  GI50: 19.1 µM (inactive)
[8]
  GI50: 18.6 µM (inactive)
[9]
  GI50: 85.7 µM (inactive)
[10]
  GI50: 78.5 µM (inactive)
[11]
  GI50: 18.8 µM (inactive)
[12]
  GI50: 7.41 µM (inactive)
[13]
  GI50: 46.7 µM
[14]
  GI50: 11.7 µM (inactive)
[16]
  GI50: 13.7 µM (inactive)
[18]
  GI50: 24.5 µM (inactive)
[19]
  GI50: 2.26 µM (inactive)
[20]
  GI50: 17.9 µM (inactive)
[21]
  GI50: 17 µM (inactive)
[22]
  GI50: 16.1 µM (inactive)
[23]
  GI50: 12.4 µM (inactive)
[24]
  GI50: 20.8 µM (inactive)
[25]
  GI50: 48.3 µM (inactive)
[26]
  GI50: 18 µM (inactive)
[27]
  GI50: 20.6 µM (inactive)
[28]
  GI50: 11.7 µM (inactive)
[29]
  GI50: 13.8 µM (inactive)
[59]
  GI50: 12 µM (inactive)
[31]
  GI50: 34.7 µM (inactive)
[32]
  GI50: 16.1 µM (inactive)
[33]
  GI50: 25.9 µM (inactive)
[34]
  GI50: 22.2 µM (inactive)
[35]
  GI50: 46.6 µM (inactive)
[36]
  GI50: 18.7 µM (inactive)
[37]
  GI50: 22.2 µM (inactive)
[38]
  GI50: 22.3 µM (inactive)
[39]
  GI50: 21.9 µM (inactive)
[40]
  GI50: 16 µM (inactive)
[41]
  GI50: 54.3 µM (inactive)
[42]
  GI50: 15.7 µM (inactive)
[43]
  GI50: 10.4 µM (inactive)
[44]
  GI50: 24.7 µM (inactive)
[45]
  GI50: 37.8 µM (inactive)
[46]
  GI50: > 10 µM (inactive)
[48]
  GI50: 27.5 µM (inactive)
[49]
  GI50: 63.1 µM (inactive)
[50]
  GI50: 33.7 µM (inactive)
[51]
  GI50: 17.9 µM (inactive)
[52]
  GI50: 42.8 µM (inactive)
[53]
  GI50: 22 µM (inactive)
[54]
  GI50: 36.2 µM (inactive)
[55]
  GI50: 37 µM (inactive)
[56]
  GI50: 18.5 µM (inactive)
[57]
  GI50: 27 µM (inactive)
[58]
  GI50: 18.6 µM (inactive)

## Cc1c(S(=O)(=O)O)ccc(/N=N/c2c(O)c(C(=O)O)cc3ccccc23)c1Cl
[1]
  GI50: > 89.3 µM (inactive)
[2]
  GI50: > 100 µM (inactive)
[3]
  GI50: > 100 µM (inactive)
[4]
  GI50: > 100 µM (inactive)
[5]
  GI50: > 100 µM (inactive)
[6]
  GI50: > 86.5 µM (inactive)
[7]
  GI50: > 100 µM (inactive)
[8]
  GI50: > 100 µM (inactive)
[9]
  GI50: > 100 µM (inactive)
[10]
  GI50: > 100 µM (inactive)
[11]
  GI50: > 100 µM (inactive)
[12]
  GI50: > 100 µM (inactive)
[13]
  GI50: > 100 µM
[14]
  GI50: > 100 µM (inactive)
[15]
  GI50: > 100 µM (inactive)
[16]
  GI50: > 100 µM (inactive)
[17]
  GI50: > 100 µM (inactive)
[18]
  GI50: > 62.1 µM (inactive)
[19]
  GI50: > 100 µM (inactive)
[20]
  GI50: > 100 µM (inactive)
[21]
  GI50: > 100 µM (inactive)
[22]
  GI50: > 100 µM (inactive)
[23]
  GI50: > 100 µM (inactive)
[24]
  GI50: > 100 µM (inactive)
[25]
  GI50: > 49.8 µM (inactive)
[26]
  GI50: > 100 µM (inactive)
[27]
  GI50: > 100 µM (inactive)
[28]
  GI50: > 100 µM (inactive)
[29]
  GI50: > 63.5 µM (inactive)
[59]
  GI50: > 100 µM (inactive)
[30]
  GI50: > 100 µM (inactive)
[31]
  GI50: > 100 µM (inactive)
[32]
  GI50: > 100 µM (inactive)
[33]
  GI50: > 100 µM (inactive)
[34]
  GI50: > 100 µM (inactive)
[35]
  GI50: > 100 µM (inactive)
[36]
  GI50: > 100 µM (inactive)
[37]
  GI50: > 100 µM (inactive)
[38]
  GI50: > 100 µM (inactive)
[39]
  GI50: > 100 µM (inactive)
[40]
  GI50: > 100 µM (inactive)
[41]
  GI50: > 100 µM (inactive)
[42]
  GI50: > 100 µM (inactive)
[44]
  GI50: > 100 µM (inactive)
[45]
  GI50: > 100 µM (inactive)
[46]
  GI50: > 100 µM (inactive)
[47]
  GI50: > 100 µM (inactive)
[48]
  GI50: > 100 µM (inactive)
[49]
  GI50: > 100 µM (inactive)
[50]
  GI50: > 100 µM (inactive)
[51]
  GI50: > 50.2 µM (inactive)
[52]
  GI50: > 100 µM (inactive)
[53]
  GI50: > 100 µM (inactive)
[54]
  GI50: > 100 µM (inactive)
[55]
  GI50: > 92.5 µM (inactive)
[56]
  GI50: > 100 µM (inactive)
[57]
  GI50: > 100 µM (inactive)
[58]
  GI50: > 100 µM (inactive)

Source: ChEMBL document CHEMBL1201862, “PubChem BioAssay data set” (2004)
